Source: patent US10143198B2, “Use of propyl propane thiosulfinate and propyl propane thiosulfonate for the prevention and reduction of parasites in aquatic animals” (Investfood, LLC, priority 2013, dated 2018)

Columns and labels:
Icthyobodo necator = experiment: oral treatment of Ichthyobodosis in rainbow trout, PTSO administered into feed; type: in vivo; details: for % infestation High / % infestation Low / % infestation minimal / % infestation Moderate / % infestation zero: 24 hours after end of assay; for % infestation High: High = more than 50 individuals per microscope field; for % infestation Low: Low = more than 1 individual, less than 10 per field; for % infestation minimal: Minimal = only 1 individual detected; for % infestation Moderate: Moderate = 10 to 50 per field; for % infestation zero: Zero = not detected
Protocol: In this example, a study of oral treatments of Ichthyobodosis in rainbow trout with different concentrations of Propyl propane thiosulphonate (PTSO) administered into feed was conducted.
Rainbow trout Oncornynchus mykiss were obtained from a local fish farm and acclimatized for at least 10 days before assay in 100 l tanks with aeration in closed systems of water (15±2° C., pH 7-7.5). The natural light-dark cycle was simulated (12 h light: 12 h dark). Fish were fed twice per day with a commercial feed (EFICO, Biomar, Spain). Parasite-free fish were experimentally infested by holding the parasite-free fish 25 days in a 100 l tank that also contained fish showing high-intensity infestation (20 uninfected fish to 10 infected fish).
Fish were anaesthetized by immersion in bath with 100 ppm of Tricaine methanesulfonate until respiration became weak. A mucus sample was then taken by gently scraping the body surface after examination of a sample area of 24×32 mm. The sample was mixed with 30 μl of distilled water on a slide, cover-slipped and examined to optic microscopy (400×).
Each treatment was assayed in 20 infected fish maintained in 100 L tanks with aeration in closed systems of water. The fish received feed containing three different treatments. The first group received a diet with 100 ppm of Propyl propane thiosulphonate (PTSO), the second received a diet supplemented with 300 ppm of PTSO, and the third received a diet with 300 ppm of metronidazole. All treatments were applied during a 10 day period. In all cases, feed was supplied at 2% of total body weight per day. Simultaneously, a positive control assay (also on 20 infected fish treated identically, but without any PTSO) and negative control assay (with 20 uninfected animals) were performed. Tanks conditions were identical to those during the acclimatization period.
Throughout the assay period the fish were monitored regularly to ensure that the fish were eating the food, and to check for signs of toxicity.
Of note, infestation intensity was based on a 5-point scale, as follows: Zero equals Ichthyobodo necator not being detected in the sample; Minimal equals only 1 individual of I. necator being detected in the sample; Low equals more than 1 individual of parasite being detected in the sample, the average number per microscope field being less than 10; Moderate equals an average number of individuals per microscope field of 10 to 50; High equals an average number of individuals per microscope field of more than 50.

[1] = system: L3 larvae of Hysterotylacium aduncum; details: 75 ppm, in vitro, 36° C.
From the text: (§1) The objective of example 3 was to examine the activity of propyl propane thiosulphonate (PTSO) and propyl propane thiosulfinate (PTS) against L3 larvae of type I Anisakis and Hysterotylacium aduncum to explore the possible use of these compounds for prophylaxis treatments.
(§2) L3 of Anisakis type I and Hysterotylacium aduncum were collected by dissecting the fish Micromesistius poutassou (blue whiting) and Trachurus trachurus (mackerel) fished in the Cantabric sea, and selecting only larvae with a length greater than (>) 2.0 cm in the case of Anisakis, and greater than 0.8 cm for Hysterotylacium.
(§3) Larvae were axenised in antibiotic solution (Iglesias et al., 1997), introduced into polystyrene plate wells with 2 ml of sterile solution of 0.9% NaCl and the different concentrations of PTS alone, PTSO alone, and both PTS and PTSO (75, 200, 300 and 500 ppm) and then incubated at 36° C. in a 5% CO2 atmosphere. As controls, larvae were assayed without test compound under identical experimental conditions, and using only the solvent DMSO 1% (Dimethyl sulfoxide). Larvae were examined under stereoscopic microscope at 4, 8, 24, and 48 hours to test the biocidal effect of the compounds. Larvae with no mobility at all were considered dead. Each dilution was tested three times on larvae from fish captured on different days.

[2] = system: L3 larvae of Anisakis type I; details: 200, 300 and 500 ppm, in vitro, 36° C.
From the text: as §1, §2, §3

Row | Compound | % infestation High (Icthyobodo necator; 300 ppm in feed for 10 days) [%] | % infestation Low (Icthyobodo necator; 300 ppm in feed for 10 days) [%] | % infestation minimal (Icthyobodo necator; 300 ppm in feed for 10 days) [%] | % infestation Moderate (Icthyobodo necator; 300 ppm in feed for 10 days) [%] | % infestation zero (Icthyobodo necator; 300 ppm in feed for 10 days) [%] | anti-parasitic activity (mortality) [1] | anti-parasitic activity (mortality) [2] | % infestation High (Icthyobodo necator; 100 ppm in feed for 10 days) [%] | % infestation Low (Icthyobodo necator; 100 ppm in feed for 10 days) [%] | % infestation minimal (Icthyobodo necator; 100 ppm in feed for 10 days) [%] | % infestation Moderate (Icthyobodo necator; 100 ppm in feed for 10 days) [%] | % infestation zero (Icthyobodo necator; 100 ppm in feed for 10 days) [%] | antiparasitic activity, infestation intensity (Icthyobodo necator; oral in feed)
1 | Cc1ncc([N+](=O)[O-])n1CCO [Metronidazole, metronidazole, reference compound] | 15 | 7 | 12 | 20 | 46 | – | – | – | – | – | – | – | –
2 | CCCS[S+]([O-])CCC (centres unmarked) [PTS, propyl propane thiosulfinate] | – | – | – | – | – | significant anti-parasitic activity | significant anti-parasitic activity | – | – | – | – | – | –
3 | CCCSS(=O)(=O)CCC [PTSO, propyl propane thiosulfonate] | 25 | 8 | 5 | 7 | 55 | significant anti-parasitic activity | significant anti-parasitic activity | 35 | 18 | 12 | 30 | 5 | significant reduction of infestation intensity
